pIC50: −log10 of the molar value.

10 compounds from ChEMBL document CHEMBL1932978, “Inhibitors of human 2,3-oxidosqualene cyclase (OSC) discovered by virtual screening” (Bioorg Med Chem Lett, 2012) can be followed below.

In assay [1] the target is T1, Lanosterol synthase (Homo sapiens) (UniProt P48449).
T1 sequence (whole entry): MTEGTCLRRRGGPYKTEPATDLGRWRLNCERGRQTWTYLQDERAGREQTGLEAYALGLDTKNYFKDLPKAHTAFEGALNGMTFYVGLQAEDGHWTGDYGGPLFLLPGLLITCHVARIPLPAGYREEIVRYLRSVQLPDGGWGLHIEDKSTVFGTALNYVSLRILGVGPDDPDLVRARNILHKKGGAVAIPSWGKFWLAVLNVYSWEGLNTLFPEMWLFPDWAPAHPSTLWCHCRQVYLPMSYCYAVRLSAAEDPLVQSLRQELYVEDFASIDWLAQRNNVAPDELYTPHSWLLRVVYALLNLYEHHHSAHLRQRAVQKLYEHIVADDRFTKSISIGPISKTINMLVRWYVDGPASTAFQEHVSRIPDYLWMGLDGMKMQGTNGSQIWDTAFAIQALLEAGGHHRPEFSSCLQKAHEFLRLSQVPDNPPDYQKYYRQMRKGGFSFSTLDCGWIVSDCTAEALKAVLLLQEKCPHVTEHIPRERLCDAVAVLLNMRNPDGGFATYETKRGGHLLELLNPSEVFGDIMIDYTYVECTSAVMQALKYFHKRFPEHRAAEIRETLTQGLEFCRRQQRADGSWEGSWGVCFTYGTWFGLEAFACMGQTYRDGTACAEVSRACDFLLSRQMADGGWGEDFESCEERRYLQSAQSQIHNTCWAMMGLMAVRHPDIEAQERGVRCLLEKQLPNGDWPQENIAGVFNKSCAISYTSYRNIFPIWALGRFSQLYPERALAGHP
As to the kind of experiment: Inhibition of human OSC expressed in Saccharomyces cerevisiae at 20 uM by gas chromatography relative to LDAO2.

Another assay deals with T2, Lanosterol synthase (Homo sapiens, UniProt P48449).
T2 sequence (P48449 whole entry): T1 sequence (whole entry)
Nature of the assay: Inhibition of human OSC expressed in Saccharomyces cerevisiae by gas chromatography.

`O=C(Cc1ccc(Cl)cc1)c1ccc(C(=O)NCCCn2ccnc2)[nH]1`: in assay [1], the inhibition turned out to be 59%. On Lanosterol synthase, `CCCCCCCCCCCC[N+](C)(C)[O-]` had a negative-log IC50 (pIC50) of 5.20. For the same compound, in assay [1], the inhibition was found to be 100%.

Consider `CN(C)Cc1ccc(CNC(=O)Nc2ccc(Cl)cc2)cc1`, for which the negative-log IC50 (pIC50) against Lanosterol synthase is 5.51. In assay [1], the inhibition amounted to 97%.

In turn, `O=C(CCc1ccc(CN2CCCC2)cc1)Cn1cnc2sc(-c3ccccc3)cc2c1=O` had a pIC50 at Lanosterol synthase of 5.30. Further, the inhibition in assay [1] was determined as 87%. Consider `Cc1cc(CNCc2ccc(CN(C)C)cc2)c(C)n1CC(C)C`, for which the inhibition in assay [1] was 27%. `CN(C)Cc1ccc(CNC(=O)c2ccc(C(F)(F)F)cc2)cc1` had a negative-log IC50 (pIC50) on Lanosterol synthase of 5.86. The inhibition in assay [1] stood at 101%.

Consider `COc1ccc(-n2c(C)cc(CNCc3ccc(CN(C)C)cc3)c2C)cc1`, for which the inhibition in assay [1] stood at 75%. As for `CN(C)Cc1ccc(CNCc2cnn(-c3ccccc3)n2)cc1`, the inhibition in assay [1] is 77%.

`S=C(NCc1ccccc1)Nc1ccc(Cc2ccncc2)cc1`: the negative logarithm of the IC50 (pIC50) against Lanosterol synthase is 5.32. In assay [1], the inhibition was 96%. For `CN(C)Cc1ccc(CNC(=O)COc2ccc3ccccc3c2)cc1`, in that order: 4.97 and 83%.
